89 compounds from PubChem BioAssay AID1963597 (National Center for Advancing Translational Sciences (NCATS), 2024) can be followed below.

Non-standard residues stand in square brackets, D forms with d. Residues, ends and D or L forms follow the SMILES beside them. *: point of attachment. Sta = CC(C)C[C@H](N)[C@@H](O)CC(=O)O; Isovaleryl = CC(C)CC(=O)*

The term half-life denotes how long it takes for the measured level to halve.

The data set concerns human liver microsomes, metabolic stability half-life. Description: NCATS Human Liver Microsomal (HLM) Stability Profiling. To be noted: higher = more stable; screened at 1 µM (by protocol). An outline of the steps: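 Substrate depletion (in vitro t1/2): 1 µM compound with 0.5 mg/mL microsomes and NADPH regenerating system, phosphate buffer pH 7.4, 37 °C. Sampled at 0, 5, 10, 15, 30, 60 min into cold acetonitrile with albendazole internal standard for MS quantification.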
Background: Liver microsomes are vesicles of endoplasmic reticulum, rich in cytochrome P450 enzymes.
Take `CN1c2cc(C(=O)Nc3ccc(C#N)cc3)ccc2C(=O)N2CCCCC21` (centres undefined): the half-life was found to be 44.3 min.
`CCOc1ccc(NS(=O)(=O)c2ccc(N)cc2)nn1` came in with a half-life above 120 min.
Under `Cc1cccc(N2CCN(C(=O)CCC(=O)NNc3nc4ccccc4c4nc(C)nn34)CC2C)c1` (centres undefined) stands 6.71 min.
Next, `O=C(Nc1c(-c2cccs2)nc2ccccn12)c1ccc(Cl)cc1`: above 120 min.
Next, `CC(=O)c1ccc(O)c(C(N)=O)c1`: above 120 min.
`CC1CC(C)(C)N(C(=O)CN2C(=O)c3ccccc3C2=O)c2ccccc21` (centres undefined) came in with a half-life of 8.38 min.
Next, `Cc1cccc(N(C)C(=S)Oc2ccc3ccccc3c2)c1`: 2.99 min.
Under `CCN(CC)Cc1ccc(C(=O)N(CCc2ccccc2OC)[C@@H]2CCNC2)cc1` stands above 120 min; under `OCc1ccccn1`, above 120 min; under `COc1cc(/C=N\NC(=O)c2ccc3c(c2)OCO3)ccc1OCc1ccccc1`, 23.5 min.
Next, `Cc1cc(O)c2c(c1)C(=O)c1cccc(O)c1C2=O`: 1.86 min; `O=C(Nc1ccnc(NC(=O)C2CC2)c1)c1c(Cl)cccc1Cl`: above 120 min.
The compound `C#CCOC(C(=O)OCCN(C)C)(c1ccccc1)c1ccccc1` showed a half-life of 43.7 min.
Under `Clc1ccccc1-c1nc(-c2ccncc2)no1` stands 35.8 min; under `Cc1ccc2nc(-c3cc(NC(=O)c4ccc5c(c4)OCCO5)ccc3Cl)oc2c1`, 63.3 min.
Next, `Cn1c(=O)c2c(nc(CN3CCN(C(=O)C4CC4)CC3)n2Cc2ccccc2Cl)n(C)c1=O`: 24.1 min; `COCCCNC(=O)C(=O)Nc1c2c(nn1-c1cccc(Cl)c1)CSC2`: 24.9 min.
For `CCN(CC)CC(=O)Nc1c(C)cccc1C(=O)OC`, the half-life turned out to be 24 min.
Under `CC[C@@H]([C@H](C)O)n1ncn(-c2ccc(N3CCN(c4ccc(OC[C@@H]5CO[C@@](Cn6cncn6)(c6ccc(F)cc6F)C5)cc4)CC3)cc2)c1=O` stands above 120 min; under `CCCCS(=O)(=O)N[C@@H](Cc1ccc(OCCCCC2CCNCC2)cc1)C(=O)O`, above 120 min; under `COCCc1ccc(OC[C@H](O)CNC(C)C)cc1`, above 120 min.
Next, `COc1ccc2c(c1)CC[C@@H](CN(C)CC(=O)O)[C@H]2c1ccccc1`: above 120 min; `Cc1cccc(C)c1NC(=O)Nc1cccs1`: 80.6 min.
Next, `Cc1cc(OCc2nnc(SC3CCCC3)n2-c2cccnc2)ccc1-c1ccc(S(C)(=O)=O)cc1`: 1.66 min; `CCOc1cc(OCC)c(C(=O)CCC(=O)O)cc1OCC`: above 120 min.
As to `CC1=C(C(=O)Nc2cccc(CN)c2)C(c2ccccc2Cl)N=C(Nc2nc3ccccc3o2)N1` (centres undefined), the half-life was above 120 min.
As to `Cc1ccc(S(=O)(=O)Nc2ccccc2N2CCCCC2)cc1`, the half-life amounted to 3.04 min.
In the case of `C=CC1=C(C(=O)O)N2C(=O)[C@@H](NC(=O)/C(=N\OCC(=O)O)c3csc(N)n3)[C@H]2SC1`, the half-life is above 120 min.
Next, `CCC(=O)N1CCC(n2nccc2NC(=O)Nc2ccccc2Cl)CC1`: 89.7 min; `COc1ccc(-n2nc(CCC(=O)N(C)O)cc2-c2ccc(Cl)cc2)cc1`: 39.1 min.
For the compound `CCc1ccc(NC(=O)N2CCN(c3nnc(C)c4c(C)n(-c5ccc(Cl)cc5)nc34)CC2)cc1`, the half-life stood at 25.5 min.
For `N#Cc1ccc(-c2ccc(S(=O)(=O)Nc3cccc(N)n3)cc2)cc1`, the half-life was above 120 min.
Under `Cc1c(N2C(=O)[C@@H]3[C@H](O)CCN3C2=O)ccc(C#N)c1Cl` stands above 120 min; under `CN(C)c1nc(Cc2ccc(NC(=O)c3ccc4ccccc4c3)cc2)nc(Cl)c1CC(=O)O`, above 120 min.
Next, `CCN1C(=O)c2ccccc2C1Nc1ccc(OCCN2CCCCC2)cc1` (centres undefined): 105 min.
Next, `CC(=O)N1CCC(Cc2ccc(C(=O)O)cc2)CC1`: above 120 min; `COc1ccc2cc(-c3cc(-c4cc(Cl)cc(Cl)c4)nn3C(C)c3ccc(C(=O)NCCC(=O)O)cc3)ccc2c1` (centres undefined): above 120 min.
The compound `O=C1c2ccccc2C(=O)c2c(O)c(O)cc(O)c21` yielded a half-life of 59.8 min.
Under `Cn1ncc(Cl)c1-c1cc(C(=O)NC(CN)Cc2ccc(F)c(F)c2)oc1Cl` (centres undefined) stands above 120 min; under `C=CC(=O)Nc1cccc(CN2C(=O)N(c3c(Cl)c(OC)cc(OC)c3Cl)Cc3cnc(NCCCCN(CC)CC)nc32)c1`, 43 min.
Under `CCN1CC(CCN2CCOCC2)C(c2ccccc2)(c2ccccc2)C1=O` (centres undefined) stands 33.9 min; under `C#Cc1cccc(Nc2ncnc3cc(OCCOC)c(OCCO)cc23)c1`, above 120 min.
Under `CN(C)N(C)C(=O)[C@@]1(Cc2ccccc2)CCCN(C(=O)[C@@H](Cc2c[nH]c3ccccc23)NC(=O)C(C)(C)N)C1` stands 12.6 min.
`Cc1csc(NC(=O)c2ccc(COc3cccc(Cl)c3)o2)n1` returned a half-life of 14.9 min.
Next, `CNc1cccc(CCOc2ccc3c(c2)CN(CC(F)(F)F)C(=O)[C@H](CC(=O)O)C3)n1`: above 120 min.
Compound `Clc1cccc(N2CCNCC2)c1` displayed a half-life of 39.8 min.
Next, `CCC1(O)CC2c3cc(OC)c(OC)cc3CCN2CC1CC(C)C` (centres undefined): above 120 min; `C[C@@H]1C[C@H]2[C@@H]3C[C@H](F)C4=CC(=O)C(Cl)=C[C@]4(C)[C@@]3(F)[C@@H](O)C[C@]2(C)[C@@]1(O)C(=O)CO`: 46.3 min.
Next, `CC(C)C(Br)C(=O)NC(N)=O` (centres undefined): above 120 min.
Under `CC(C)(C)Sc1c(CC(C)(C)C(=O)O)n(Cc2ccc(Cl)cc2)c2ccc(OCc3ccc4ccccc4n3)cc12` stands 34 min; under `O=C1CCC(c2ccccc2)(C2CCN(Cc3ccc(I)cc3)CC2)C(=O)N1` (centres undefined), above 120 min.
The compound `CN1CC(O)c2cc(N=NC(N)=O)c(O)cc21` (centres undefined) came in with a half-life above 120 min.
Under `COc1cc(C)c(Sc2cnc(NC(=O)c3ccc(CNC(C)C(C)C)cc3)s2)cc1C(=O)N1CCN(C(C)=O)CC1` (centres undefined) stands 8.06 min; under `CCc1noc(-c2ccc(NCc3ccccc3)c([N+](=O)[O-])c2)n1`, 4.39 min; under `CCOc1ccc(Nc2nc(C)c(NC(=O)c3ccc(C)cc3)c(Nc3ccc(OCC)cc3)n2)cc1`, 12.2 min.
Under `C=CC(=O)Nc1ccc2ncnc(Nc3cccc(Br)c3)c2c1` stands 12.5 min; under `CN(C)CCC[C@@]1(c2ccc(F)cc2)OCc2cc(C#N)ccc21`, above 120 min; under `Clc1ccc(C(Cn2ccnc2)OCc2ccc(Sc3ccccc3)cc2)c(Cl)c1` (centres undefined), 54.1 min.
Under `CCCCCn1cc(C(=O)Oc2cccc3cccnc23)c2ccccc21` stands 4.97 min; under `O=C(C1CCCCC1)N1CC(=O)N2CCCc3ccccc3C2C1` (centres undefined), 20.8 min.
`Cc1cccc(NC(=O)Nc2cccs2)c1C` came in with a half-life of 10.2 min.
Under `Nc1cccc(CNC(=O)c2ccc(Oc3ccc(OCc4cccc(F)c4)cc3)nc2)c1` stands 29.7 min; under `Cn1cc(-c2[nH]c3cc(NC(=O)[C@H](N)C4CCCCC4)cc4c3c2C=NNC4=O)cn1`, 102 min; under `Cc1nc2c3ccccc3nc(NNC(=O)CCC(=O)N3CCN(c4ccccc4)CC3)n2n1`, 107 min.
Regarding `CC1(c2ccccc2)N(Cc2ccccc2)C(=O)OC12CCN(Cc1cccc(C#N)c1)CC2` (centres undefined), the half-life stood at 2.04 min.
Compound `Nc1c(I)cc(I)c(C(=O)N(CCC(=O)O)c2ccccc2)c1I` had a half-life above 120 min.
Under `O=C(CCc1ccccc1)N1CCC(O)(Cn2cnc3cc(Cl)ccc3c2=O)CC1` stands 3.16 min.
Next, `Cc1cccc(N2CCN(C(=O)c3cn(C4CCCCC4)c(=O)c4c3c3ccccc3n4C)CC2)c1C`: 0.76 min; `C[C@]12CC[C@H]3[C@@H](CC[C@@]45O[C@H]4C(O)=C(C#N)C[C@]35C)[C@H]1CC[C@H]2O`: 85 min.
Next, `Cc1cccc(C)c1NC(=O)[C@H]1CCCCN1C`: above 120 min; `CC(C)c1ccc2oc3nc(N)c(C(=O)O)cc3c(=O)c2c1`: above 120 min; `CCN(CC)CCOc1ccc2c(c1)C(=O)c1cc(OCCN(CC)CC)ccc1-2`: above 120 min.
In turn, `CN(C)[C@@H]1C(=O)C(C(N)=O)=C(O)[C@@]2(O)C(=O)C3=C(O)c4c(O)cccc4C[C@H]3C[C@@H]12` showed a half-life above 120 min.
As to `FC(F)(F)Oc1ccc(-c2ccc3nnc(C(F)(F)F)n3c2)cc1`, the half-life is above 120 min.
`COc1cccc(NC(=O)c2oc3ccc(S(=O)(=O)N4CCC5(CC4)OCCO5)cc3c2C)c1` came in with a half-life of 12.2 min.
In turn, `CC(C)CC(=O)N[C@H](C(=O)N[C@H](C(=O)N[C@@H](CC(C)C)[C@@H](O)CC(=O)N[C@@H](C)C(=O)N[C@@H](CC(C)C)[C@@H](O)CC(=O)O)C(C)C)C(C)C` (Isovaleryl-VV[Sta]A[Sta]-OH) yielded a half-life above 120 min.
For the compound `CC(C)(C)c1ccc(C(=O)CCCCl)cc1`, the half-life was 3.84 min.
As for `CC(=O)OCC(=O)[C@@]1(O)CC[C@H]2[C@@H]3CCC4=CC(=O)C=C[C@]4(C)[C@@]3(F)[C@@H](O)C[C@@]21C`, the half-life is 87.5 min.
As to `Nc1ncnc2c1ncn2Cc1c(F)cccc1Cl`, the half-life was above 120 min.
Next, `O=c1[nH]c2cccc(N3CCN(Cc4ccc(-c5ccccc5)cc4)CC3)c2o1`: 31.7 min; `CC(C)(C)c1ccc(C(=O)Nc2cc(Cl)c(Br)cc2C(=O)O)cc1`: 6.17 min; `CCNP(=S)(OC)O/C(C)=C/C(=O)OC(C)C` (centres undefined): above 120 min.
Next, `CC(C)c1ccc(-n2ncc3c(=O)n(CC(=O)Nc4cc(F)ccc4Cl)cnc32)cc1`: 23.9 min; `CC(=O)c1ccc(N2CCN(c3ncnc4c3cnn4C)CC2)cc1`: 109 min; `COc1ccc(C)cc1Nc1c2c(nc3ccccc13)CCC2`: 29.9 min.
`O=C(Nc1nnc(-c2ccc3c(c2)OCCO3)o1)C1CCCCC1`: the half-life stood at 0.57 min.
On to `O=C(N[C@@H](COc1ccc2[nH]c(=O)[nH]c2c1)c1ccccc1)c1cccn(Cc2ccc(F)c(F)c2)c1=O`, for which the half-life turned out to be 42.5 min.
Under `Cc1[nH]c(/C=C2\C(=O)Nc3cc(-c4ccccc4)ccc32)c(C)c1CCC(=O)O` stands above 120 min; under `COc1ccc([C@@H]2Sc3ccccc3NC(=O)[C@@H]2O)cc1`, 67.5 min.
